Measured values from patent US20230293439A1, “SPRAY DRYING OF SUPERSATURATED SOLUTIONS OF API WITH ACETIC ACID” (BEND RESEARCH, INC., priority 2020, published 2023).
Values after ≈ are worked out from the molar mass of the structure shown. Read-outs that look alike come from different tables or passages of the source.

Legend:
[1] = Metastability of the supersaturated nilotinib solution from the Solvent-Shift route (visual check for precipitation)
[2] = Solubility determination of nilotinib (saturated solution, 24 h stirring, filtrate analysed by gravimetry); assay type: physicochemical; conditions: for solubility at 24 h: organic solvent or mixture, thermodynamic from solid
Experimental: A saturated solution of nilotinib was prepared in the respective solvent at the respective temperature with excess crystalline nilotinib and allowed to stir for 24 h, a suspension of nilotinib in the solvent, which was saturated with nilotinib, was obtained. The suspension was filtered through a 1 micrometer glass filter. Crystalline solubility was determined by analysis of the filtrate, which is the saturated solution, by gravimetry (weighing).

[3] = Glacial Acetic Acid, wt % of saturated solution
[4] = Methanol:Acetic Acid 9:1 (w:w), wt % of saturated solution
[5] = Methanol, wt % based on weight of the saturated solution

For Cc1cn(-c2cc(NC(=O)c3ccc(C)c(Nc4nccc(-c5cccnc5)n4)c3)cc(C(F)(F)F)c2)cn1 [Nilotinib], the “Time at which visible solids were observed” value ([1]; Example 1: 2.15 wt % nilotinib in 91.2:8.8 (w:w) methanol:acetic acid, 40° C., no polymer) was 7.5 h, the “Appearance of the control mixture (nilotinib weighed directly into the solvent mixture)” value ([1]; Example 1 control: 2.06 wt % nilotinib in 89.5:10.5 (w:w) methanol:acetic acid, 40° C.) was “visible slurry” and the “Time at which visible solids were observed” value ([1]; Example 3: 2.19 wt % nilotinib in 85.0:9.0:6.0 (w:w:w) methanol:acetic acid:PVP-VA64, 40° C.) was 4 h. For the same compound, the solubility at 24 h ([2]; 25 °C, Glacial Acetic Acid, mg per ml saturated solution, read-out: Solubility at 25° C.) was 135000 µg/mL (≈ 255 mM), the solubility at 24 h ([2]; 25 °C, Methanol:Acetic Acid 9:1 (w:w), mg per ml saturated solution, read-out: Solubility at 25° C.) was 6000 µg/mL (≈ 11.3 mM) and the solubility at 24 h ([2]; 25 °C, Methanol, mg of nilotinib per ml saturated solution, read-out: Solubility at 25° C.) was 2800 µg/mL (≈ 5.29 mM). For the same compound, the solubility at 24 h ([2]; 40 °C, Glacial Acetic Acid, mg per ml saturated solution, read-out: Solubility at 40° C.) was 233000 µg/mL (≈ 440 mM), the “Solubility at 25° C.” value [2, 3] was 12.7 wt % and the “Solubility at 40° C.” value [2, 3] was 21.1 wt %. For the same compound, the “Solubility at 40° C.” value ([2]; Methanol:Acetic Acid 9:1 (w:w), mg per ml saturated solution) was 8 mg/mL (≈ 15.1 mM), the “Solubility at 25° C.” value [2, 4] was 0.76 wt % and the “Solubility at 40° C.” value [2, 4] was 1.0 wt %. The “Solubility at 40° C.” value ([2]; Methanol, mg of nilotinib per ml saturated solution) was 5.0 mg/mL (≈ 9.44 mM), the “Solubility at 25° C.” value [2, 5] was 0.36 wt % and the “Solubility at 40° C.” value [2, 5] was 0.66 wt %.
